{"source": "ChEMBL document CHEMBL1201862", "about": "“PubChem BioAssay data set” (2004)", "key": {"[1]": {"molecular_target": "T1, Mannose-6-phosphate isomerase (Homo sapiens, UniProt P34949)", "T1 sequence (P34949 whole entry)": "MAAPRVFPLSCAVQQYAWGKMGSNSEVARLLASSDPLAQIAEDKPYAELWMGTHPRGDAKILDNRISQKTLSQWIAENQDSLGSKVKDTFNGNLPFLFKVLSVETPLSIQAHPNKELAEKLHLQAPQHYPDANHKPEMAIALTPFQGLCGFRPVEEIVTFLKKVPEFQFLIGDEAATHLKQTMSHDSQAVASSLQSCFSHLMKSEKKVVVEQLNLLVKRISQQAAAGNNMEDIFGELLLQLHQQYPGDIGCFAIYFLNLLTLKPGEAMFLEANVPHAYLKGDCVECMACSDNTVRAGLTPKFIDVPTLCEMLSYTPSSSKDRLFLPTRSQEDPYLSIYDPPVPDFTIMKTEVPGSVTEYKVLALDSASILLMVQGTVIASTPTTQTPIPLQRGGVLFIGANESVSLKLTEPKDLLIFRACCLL", "test": "human PMI inhibitors, high substrate, primary screen, biochemical, fluorescence intensity, high mannose 6-phosphate (AID 1220)"}, "[2]": {"molecular_target": "Lysine-specific demethylase 4A (Homo sapiens, UniProt O75164)", "sequence (O75164 whole entry)": "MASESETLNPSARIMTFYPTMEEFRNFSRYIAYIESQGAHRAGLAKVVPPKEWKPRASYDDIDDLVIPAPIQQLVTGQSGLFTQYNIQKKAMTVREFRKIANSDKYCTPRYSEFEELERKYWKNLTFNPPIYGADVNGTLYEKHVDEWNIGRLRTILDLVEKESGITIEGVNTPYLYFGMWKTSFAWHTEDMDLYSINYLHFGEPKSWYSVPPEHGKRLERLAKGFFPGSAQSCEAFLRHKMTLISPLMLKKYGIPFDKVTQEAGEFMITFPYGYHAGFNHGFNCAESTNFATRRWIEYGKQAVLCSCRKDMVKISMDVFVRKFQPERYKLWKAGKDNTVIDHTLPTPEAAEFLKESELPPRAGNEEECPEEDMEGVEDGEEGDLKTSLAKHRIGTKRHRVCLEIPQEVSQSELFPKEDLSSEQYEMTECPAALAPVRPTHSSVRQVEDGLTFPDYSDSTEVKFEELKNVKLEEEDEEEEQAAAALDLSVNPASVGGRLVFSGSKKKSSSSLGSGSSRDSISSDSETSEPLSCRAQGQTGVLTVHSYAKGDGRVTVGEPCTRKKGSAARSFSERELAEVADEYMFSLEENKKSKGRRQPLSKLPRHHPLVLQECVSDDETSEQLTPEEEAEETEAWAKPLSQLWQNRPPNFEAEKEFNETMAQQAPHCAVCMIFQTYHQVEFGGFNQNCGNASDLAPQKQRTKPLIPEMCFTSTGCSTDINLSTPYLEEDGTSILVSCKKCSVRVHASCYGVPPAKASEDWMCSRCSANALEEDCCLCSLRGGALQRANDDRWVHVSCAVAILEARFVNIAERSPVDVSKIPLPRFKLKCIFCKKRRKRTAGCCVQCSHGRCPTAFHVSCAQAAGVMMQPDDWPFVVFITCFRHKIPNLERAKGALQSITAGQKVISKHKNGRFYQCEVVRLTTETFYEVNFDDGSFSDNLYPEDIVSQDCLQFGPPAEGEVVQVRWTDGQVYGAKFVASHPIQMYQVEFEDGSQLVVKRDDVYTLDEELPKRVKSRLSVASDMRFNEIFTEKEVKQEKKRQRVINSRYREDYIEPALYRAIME", "test": "JMJD2A histone demethylase inhibitors, dose response, selectivity assay for GASC-1 inhibitor project, biochemical, DELFIA europium, cherry-picked samples (AID 488840)"}, "[3]": {"molecular_target": "Lysine-specific demethylase 4C (Homo sapiens, UniProt Q9H3R0)", "sequence (Q9H3R0 whole entry)": "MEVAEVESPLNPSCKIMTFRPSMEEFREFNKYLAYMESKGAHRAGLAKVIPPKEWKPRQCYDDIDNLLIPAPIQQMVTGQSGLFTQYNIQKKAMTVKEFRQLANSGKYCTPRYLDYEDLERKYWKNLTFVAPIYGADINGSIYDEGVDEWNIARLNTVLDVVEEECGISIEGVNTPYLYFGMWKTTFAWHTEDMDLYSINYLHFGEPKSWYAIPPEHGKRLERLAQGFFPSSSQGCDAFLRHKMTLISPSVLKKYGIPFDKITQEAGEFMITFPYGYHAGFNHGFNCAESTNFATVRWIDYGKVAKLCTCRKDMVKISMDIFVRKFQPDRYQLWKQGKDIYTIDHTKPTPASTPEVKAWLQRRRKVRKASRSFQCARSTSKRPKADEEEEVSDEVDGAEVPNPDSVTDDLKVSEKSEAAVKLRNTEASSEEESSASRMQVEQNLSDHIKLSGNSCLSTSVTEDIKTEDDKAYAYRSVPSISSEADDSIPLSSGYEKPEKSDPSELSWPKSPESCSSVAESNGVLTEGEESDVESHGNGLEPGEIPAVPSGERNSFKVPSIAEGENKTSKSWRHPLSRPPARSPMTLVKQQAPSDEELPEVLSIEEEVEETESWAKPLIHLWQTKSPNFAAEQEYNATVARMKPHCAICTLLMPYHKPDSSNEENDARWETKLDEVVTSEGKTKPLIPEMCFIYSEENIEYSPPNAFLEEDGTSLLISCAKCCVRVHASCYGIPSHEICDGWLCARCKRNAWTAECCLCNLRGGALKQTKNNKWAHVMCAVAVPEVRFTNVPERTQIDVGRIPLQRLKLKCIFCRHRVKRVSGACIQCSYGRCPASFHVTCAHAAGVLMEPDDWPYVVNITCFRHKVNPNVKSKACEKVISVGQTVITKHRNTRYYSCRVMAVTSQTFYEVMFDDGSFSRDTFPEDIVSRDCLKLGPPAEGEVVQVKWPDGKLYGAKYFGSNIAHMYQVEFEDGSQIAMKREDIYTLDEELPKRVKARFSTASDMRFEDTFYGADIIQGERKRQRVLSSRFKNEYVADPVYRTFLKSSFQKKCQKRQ", "test": "GASC-1 (JMJD2C) histone demethylase inhibitors, dose response, biochemical, DELFIA europium, cherry-picked samples (AID 488835)", "type": "functional"}, "[4]": {"test": "Counterscreen for AddAB inhibitors: absorbance-based bacterial cell-based high throughput dose response assay for inhibitors of bacterial viability. [Related pubchem assays (depositor defined):AID435030, AID449728, AID449731, AID488942, AID488955, AID488956]", "type": "functional"}, "[5]": {"molecular_target": "T2, RNA-binding protein pos-1 (Caenorhabditis elegans, UniProt G5EF15)", "T2 sequence (G5EF15 whole entry)": "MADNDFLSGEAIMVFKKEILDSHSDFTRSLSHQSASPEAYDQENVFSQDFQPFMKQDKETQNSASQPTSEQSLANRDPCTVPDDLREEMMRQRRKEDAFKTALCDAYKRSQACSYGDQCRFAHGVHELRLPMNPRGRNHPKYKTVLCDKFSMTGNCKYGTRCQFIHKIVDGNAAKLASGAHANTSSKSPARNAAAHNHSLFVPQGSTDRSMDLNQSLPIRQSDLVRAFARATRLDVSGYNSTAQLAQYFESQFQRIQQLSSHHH", "test": "inhibitors of POS-1/mex-3 RNA binding, dose response, biochemical, fluorescence polarization (AID 1964);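 note: purified POS-1 fused to maltose binding protein made in E. coli; potency of compounds blocking POS-1 binding to fluorescent RNA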"}, "Exodeoxyribonuclease V": {"molecular_target": "Exodeoxyribonuclease V (Escherichia coli (strain K12), UniProt P04993+P07648+P08394)", "test": "E. coli RecBCD inhibitors, dose response, counter-screen for AddAB inhibitor project, absorbance, V66 E. coli, mutant T4 phage (AID 492957)", "type": "functional, cell-based, Escherichia coli str. K-12 substr. MG1655"}, "[6]": {"molecular_target": "T3, Zinc finger protein mex-5 (Caenorhabditis elegans, UniProt Q9XUB2)", "T3 sequence (Q9XUB2 whole entry)": "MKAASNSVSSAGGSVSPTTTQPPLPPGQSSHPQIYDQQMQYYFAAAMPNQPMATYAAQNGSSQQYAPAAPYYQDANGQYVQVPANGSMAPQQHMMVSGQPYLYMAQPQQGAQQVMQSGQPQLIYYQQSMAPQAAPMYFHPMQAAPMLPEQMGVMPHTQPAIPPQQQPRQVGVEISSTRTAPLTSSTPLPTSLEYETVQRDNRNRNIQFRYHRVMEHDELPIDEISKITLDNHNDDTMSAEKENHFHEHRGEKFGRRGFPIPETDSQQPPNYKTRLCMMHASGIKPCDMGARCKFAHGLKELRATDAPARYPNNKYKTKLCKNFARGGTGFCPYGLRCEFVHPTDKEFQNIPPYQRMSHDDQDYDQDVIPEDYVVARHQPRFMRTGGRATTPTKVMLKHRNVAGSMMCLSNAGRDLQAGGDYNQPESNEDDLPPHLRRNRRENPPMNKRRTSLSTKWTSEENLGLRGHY", "test": "MEX-5/TCR-2 RNA interaction inhibitors, dose response, biochemical, C. elegans, fluorescence polarization (AID 1960)"}, "[7]": {"test": "Escherichia coli growth inhibition, dose response, counter-screen for MEX-5/POS-1 RNA-binding inhibitor project, luminescence, NEB5alpha (AID 1959)", "type": "functional"}, "Genome polyprotein": {"molecular_target": "Genome polyprotein (dengue virus type 2, UniProt P29990)", "sequence (P29990 2492-3391 limits assumed)": "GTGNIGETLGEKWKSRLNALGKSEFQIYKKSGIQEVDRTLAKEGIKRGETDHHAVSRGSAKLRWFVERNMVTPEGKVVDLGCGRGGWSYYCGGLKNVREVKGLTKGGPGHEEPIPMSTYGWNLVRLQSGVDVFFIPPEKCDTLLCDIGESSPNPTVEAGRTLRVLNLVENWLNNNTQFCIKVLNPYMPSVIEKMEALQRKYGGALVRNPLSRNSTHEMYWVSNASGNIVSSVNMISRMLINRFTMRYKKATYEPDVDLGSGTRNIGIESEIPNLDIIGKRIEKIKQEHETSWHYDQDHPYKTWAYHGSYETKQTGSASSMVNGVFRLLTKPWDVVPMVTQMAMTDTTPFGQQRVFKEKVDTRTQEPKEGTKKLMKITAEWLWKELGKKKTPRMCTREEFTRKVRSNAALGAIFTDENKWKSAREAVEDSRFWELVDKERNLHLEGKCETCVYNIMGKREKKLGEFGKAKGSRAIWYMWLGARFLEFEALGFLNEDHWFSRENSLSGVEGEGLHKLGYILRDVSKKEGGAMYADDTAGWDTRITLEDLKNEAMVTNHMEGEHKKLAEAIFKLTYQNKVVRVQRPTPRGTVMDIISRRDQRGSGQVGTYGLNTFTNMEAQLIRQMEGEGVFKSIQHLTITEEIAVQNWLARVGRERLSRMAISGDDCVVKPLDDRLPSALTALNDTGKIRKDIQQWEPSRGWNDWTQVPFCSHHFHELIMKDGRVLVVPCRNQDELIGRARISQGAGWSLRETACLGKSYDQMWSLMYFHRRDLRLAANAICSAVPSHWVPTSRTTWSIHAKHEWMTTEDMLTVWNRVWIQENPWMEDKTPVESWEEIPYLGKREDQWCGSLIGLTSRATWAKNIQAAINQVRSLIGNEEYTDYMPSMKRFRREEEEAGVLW", "test": "Dengue-2 NS5 methyltransferase inhibitors, primary screen, biochemical, confirmation dose response (AID 588689)", "type": "functional"}, "[8]": {"molecular_target": "T4, Dual specificity protein phosphatase 3 (Homo sapiens, UniProt P51452)", "T4 sequence (P51452 whole entry)": "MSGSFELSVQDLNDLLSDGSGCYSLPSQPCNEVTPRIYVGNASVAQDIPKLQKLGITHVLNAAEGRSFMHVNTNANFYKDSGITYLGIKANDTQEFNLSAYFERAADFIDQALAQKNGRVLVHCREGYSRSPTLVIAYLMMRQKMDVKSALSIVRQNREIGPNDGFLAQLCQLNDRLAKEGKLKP", "test": "VHR1 phosphatase inhibitors, primary screen, biochemical, absorbance, uHTS (AID 1654)"}, "[9]": {"molecular_target": "T4, Dual specificity protein phosphatase 3", "test": "VHR1 phosphatase inhibitors, biochemical (AID 1878)"}, "[10]": {"molecular_target": "T5, Dual specificity protein phosphatase 6 (Rattus norvegicus, UniProt Q64346)", "T5 sequence (Q64346 whole entry)": "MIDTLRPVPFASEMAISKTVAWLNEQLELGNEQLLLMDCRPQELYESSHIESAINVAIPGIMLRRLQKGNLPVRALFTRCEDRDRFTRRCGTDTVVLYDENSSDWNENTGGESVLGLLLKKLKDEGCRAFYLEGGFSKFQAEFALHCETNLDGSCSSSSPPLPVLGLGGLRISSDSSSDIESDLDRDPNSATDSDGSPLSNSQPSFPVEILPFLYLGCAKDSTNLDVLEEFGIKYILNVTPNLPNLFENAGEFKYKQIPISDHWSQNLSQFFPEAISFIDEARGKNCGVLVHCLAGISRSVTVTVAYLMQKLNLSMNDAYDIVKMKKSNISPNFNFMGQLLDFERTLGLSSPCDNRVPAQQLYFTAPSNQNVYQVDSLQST", "test": "MKP-3 phosphatase inhibitors, primary screen, biochemical, rat enzyme, in vitro (AID 425)"}, "Streptokinase A": {"molecular_target": "T6, Streptokinase A (Streptococcus pyogenes serotype M1, UniProt P10520)", "T6 sequence (P10520 whole entry)": "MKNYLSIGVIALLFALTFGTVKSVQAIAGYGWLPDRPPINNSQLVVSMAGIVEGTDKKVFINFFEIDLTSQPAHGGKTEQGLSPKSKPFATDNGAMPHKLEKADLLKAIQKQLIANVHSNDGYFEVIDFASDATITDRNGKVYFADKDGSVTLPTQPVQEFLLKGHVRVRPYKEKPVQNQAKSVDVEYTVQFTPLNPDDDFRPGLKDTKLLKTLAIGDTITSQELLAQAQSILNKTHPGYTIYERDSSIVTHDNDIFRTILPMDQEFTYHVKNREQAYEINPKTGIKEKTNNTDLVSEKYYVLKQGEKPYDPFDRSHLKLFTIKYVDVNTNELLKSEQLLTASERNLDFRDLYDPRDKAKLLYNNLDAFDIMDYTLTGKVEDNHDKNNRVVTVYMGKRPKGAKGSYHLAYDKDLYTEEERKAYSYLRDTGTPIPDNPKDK", "test": "S. pyogenes streptokinase expression inhibitors, potency, dose response, plasminogen activation absorbance, OD405 (AID 1914);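 note: secreted streptokinase activity via plasminogen activation per viability signal from cell pellet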", "type": "functional, Streptococcus pyogenes M1 GAS"}, "[11]": {"molecular_target": "T7, Calpain-2 catalytic subunit (Sus scrofa, UniProt P43367)", "T7 sequence (P43367 whole entry)": "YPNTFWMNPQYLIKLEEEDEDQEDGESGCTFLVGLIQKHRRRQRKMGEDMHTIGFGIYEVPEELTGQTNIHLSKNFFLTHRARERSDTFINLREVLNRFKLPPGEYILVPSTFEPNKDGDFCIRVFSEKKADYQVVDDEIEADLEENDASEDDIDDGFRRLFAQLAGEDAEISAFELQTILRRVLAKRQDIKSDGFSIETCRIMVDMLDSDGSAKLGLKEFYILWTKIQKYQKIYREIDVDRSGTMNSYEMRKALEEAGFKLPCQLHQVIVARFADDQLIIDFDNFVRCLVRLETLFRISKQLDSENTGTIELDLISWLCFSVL", "test": "pig calpain II inhibitor potency, dose response, biochemical, fluorogenic peptide substrate (AID 1420)", "type": "functional"}, "[12]": {"molecular_target": "T8, Small ubiquitin-related modifier 2 (Homo sapiens, UniProt P61956)", "T8 sequence (P61956 whole entry)": "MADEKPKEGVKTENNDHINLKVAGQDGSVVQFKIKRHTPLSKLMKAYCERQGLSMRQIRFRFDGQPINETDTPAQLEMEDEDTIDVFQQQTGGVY", "test": "SUMO2–SIM peptide binding inhibitors, dose response, selectivity assay for SUMO1 interaction inhibitor project, biochemical, fluorescence polarization, uHTS hits (AID 624385)", "type": "functional", "settings": "read-out: IC50_Mean"}, "[13]": {"molecular_target": "T9, Small ubiquitin-related modifier 1 (Homo sapiens, UniProt P63165)", "T9 sequence (P63165 whole entry)": "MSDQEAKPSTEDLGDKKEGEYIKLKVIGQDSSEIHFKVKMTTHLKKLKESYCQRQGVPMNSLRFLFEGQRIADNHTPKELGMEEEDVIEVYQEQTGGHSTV", "test": "inhibitors of SUMO1 peptide binding, dose response, biochemical, fluorescence polarization, uHTS hits (AID 624382)", "type": "functional", "settings": "read-out: IC50_Mean"}, "[14]": {"molecular_target": "T8, Small ubiquitin-related modifier 2", "test": "inhibitors of SUMO2 protein-protein interaction, dose response, selectivity assay for SUMO1 interaction inhibitor project, biochemical, FRET, human SUMO2, uHTS hits (AID 624384)", "type": "functional", "settings": "read-out: IC50_Mean"}, "Streptococcus": {"test_system": "Streptococcus", "test": "Group A Streptococcus viability loss, dose response, counter-screen for streptokinase expression inhibitor project, luminescence, BacTiterGlo (AID 1915)", "type": "functional, organism-based"}, "[15]": {"molecular_target": "T9, Small ubiquitin-related modifier 1", "test": "inhibitors of SUMO1 partner interactions, dose response, biochemical, FRET (AID 624383)", "type": "functional", "settings": "read-out: IC50_Mean"}, "[16]": {"test_system": "Streptococcus sp. 'group A'", "test": "growth inhibition of control SK(-) GAS strain, dose response, counter-screen for streptokinase expression inhibitor project, luminescence, kanamycin, BacTiterGlo, confirmation (AID 1900)", "type": "functional, organism-based"}}, "note": "Active and inactive are the calls of the source.", "data": [{"smiles": "CCOC(=O)C1=C(C)NC(=O)NC1c1c(C)nn(-c2ccccc2)c1Cl", "note": "(stereo not given)", "values": [{"measurement": "IC50", "setting": "[1]", "result": "5.4 µM (active)"}, {"measurement": "AC50", "setting": "[2]", "result": "8.63 µM (active)"}, {"measurement": "AC50", "setting": "[3]", "result": "1.22 µM (active)"}]}, {"smiles": "COc1ccc2[nH]c3c(c2c1)CCNC3c1ccc([N+](=O)[O-])o1", "note": "(stereo not given)", "values": [{"measurement": "IC50", "setting": "[4]", "result": "> 119 µM (inactive)"}, {"measurement": "EC50", "setting": "[5]", "result": "5.82 µM (inconclusive)"}, {"measurement": "IC50", "setting": "Exodeoxyribonuclease V", "result": "> 119 µM (inactive)"}, {"measurement": "EC50", "setting": "[6]", "result": "4.34 µM (inconclusive)"}, {"measurement": "EC50", "setting": "[7]", "result": "34.1 µM (active)"}]}, {"smiles": "CSc1nc(SCC(=O)O)c2sc3nc(-c4ccccc4)c4c(c3c2n1)CCC4", "values": [{"measurement": "IC50", "setting": "Genome polyprotein", "result": "48.9 µM (active)"}, {"measurement": "IC50", "setting": "[8]", "result": "5.06 µM (active)"}, {"measurement": "IC50", "setting": "[9]", "result": "3.72 µM (active)"}, {"measurement": "IC50", "setting": "[10]", "result": "96.5 µM (active)"}, {"measurement": "EC50", "setting": "Streptokinase A", "result": "7.33 µM (active)"}, {"measurement": "IC50", "setting": "[11]", "result": "3.74 µM (not active)"}, {"measurement": "IC50", "setting": "[12]", "result": "5.38 µM (active)"}, {"measurement": "IC50", "setting": "[13]", "result": "2.06 µM (active)"}, {"measurement": "IC50", "setting": "[14]", "result": "5.26 µM (active)"}, {"measurement": "EC50", "setting": "Streptococcus", "result": "6.54 µM (active)"}, {"measurement": "IC50", "setting": "[15]", "result": "5.16 µM (active)"}, {"measurement": "EC50", "setting": "[16]", "result": "1.41 µM (active)"}]}]}
